Laboratory results taken from patent publication US20260294871A1, “PHARMACEUTICAL COMBINATIONS AND COMPOSITIONS THEREOF COMPRISING ANTIBACTERIAL AGENTS” (priority 2023, published 2026).
Converted amounts (≈) assume the structure as drawn. “And” between values parts separate entries of the source, which are not always exact repeats. Equal entries are not always repeated. Where two headings read alike, the source gives them in different places.

What was measured:
[1] = tested on: all grouped isolates from India; assay: MIC by broth microdilution against all grouped isolates from India; type: cell-based, resistant bacterial strains
Description: (§1) In a typical study MIC tests were performed by broth microdilution in line with CLSI susceptibility testing standards. Bacterial inocula were prepared at ca. 1×10^6 CFU/mL by diluting 100-fold a 0.5 McFarland suspension in CA-MHB with TES. Microtiter plate wells containing 50 μL of antibacterial solutions at 2×the final concentrations were diluted 2-fold with 50 μL of inoculum to give a final inoculum of ca. 5×10^5 CFU/mL and desired test concentrations of antibacterial agents. Test microtiter plates were incubated according to CLSI guidelines and read visually. MIC values corresponded to the first well with no visible growth.
There was a marked improvement in antibacterial activity, compared to MEM alone, observed for the triple combinations, for MEM/AVI [4 mg/L]/EDTA [10 mM] and MEM/AVI [4 mg/L]/EDTA [20 mM], the reduction in MIC90 was 0.06 μg/mL and ≤0.002 μg/mL, respectively.

[2] = tested on: Enterobacterales isolates from India; assay: MIC by broth microdilution against Enterobacterales; type: cell-based, Enterobacteriaceae; details: n=301
Description: as §1
The results of antibacterial activity of amikacin, Ceftazidime-avibactam, Ceftriaxone with sulbactam and EDTA, Meropenem and Meropenem with avibactam and EDTA against highly resistant strains of Enterobacteriaceae are given in Table 2.

P. aeruginosa [3] = assay: MIC by broth microdilution against P. aeruginosa; type: cell-based, Pseudomonas aeruginosa; details: Pseudomonas aeruginosa, highly resistant strains
Description: as §1
The results of antibacterial activity of amikacin, Ceftazidime-avibactam, Ceftriaxone with sulbactam and EDTA, Meropenem and Meropenem with avibactum and EDTA against highly resistant strains of P. aeruginosa are given in Table 5. As may be seen, the activity of the comparators was much lower although CRO/S4/E10 maximum MIC90 were much lower at ≤0.03 μg/mL.

[4] = tested on: Stenotrophomonas maltophilia; assay: MIC by broth microdilution against Stenotrophomonas maltophilia; type: cell-based; details: Stenotrophomonas maltophilia, highly resistant strains
Description: as §1
The results of antibacterial activity of amikacin, Ceftazidime-avibactam, Ceftriaxone with sulbactam and EDTA, Meropenem and Meropenem with avibactum and EDTA against highly resistant strains of Stenotrophomonas maltophilia are given in Table 8.

Acinetobacter baumannii = assay: MIC by broth microdilution against Acinetobacter baumannii; type: cell-based
Description: as §1
The results of antibacterial activity of amikacin, Ceftazidime-avibactam, Ceftriaxone with sulbactam and EDTA, Meropenem and Meropenem with avibactum and EDTA against highly resistant strains of Acinetobacter baumannii are given in Table 7.

[5] = tested on: Non-Enterobacteriaceae (non-fermenter isolates); assay: MIC by broth microdilution against Non-Enterobacteriaceae; type: cell-based
Description: as §1

K. pneumoniae [6] = assay: MIC by broth microdilution against Klebsiella; type: cell-based, Klebsiella pneumoniae; details: highly resistant strains
Description: as §1
The results of antibacterial activity of amikacin, Ceftazidime-avibactam, Ceftriaxone with sulbactam and EDTA, Meropenem and Meropenem with avibactam and EDTA against highly resistant strains of Klebsiella (93. 3% Mem NS) are given in Table 4.

Escherichia coli = assay: MIC by broth microdilution against E. coli; type: cell-based; details: Escherichia coli, highly resistant strains
Description: as §1
The results of antibacterial activity of amikacin, Ceftazidime-avibactam, Ceftriaxone with sulbactam and EDTA, Meropenem and Meropenem with avibactam and EDTA against highly resistant strains of Escherichia coli are given in Table 3. […] There was a marked improvement in antibacterial activity, compared to MEM alone, observed for the triple combination MEM/AVI [4 mg/L]/EDTA [10 mM] with a MIC90 at 0.004 μg/mL

P. aeruginosa [7] = assay: MIC profile of EDTA, P. aeruginosa; type: cell-based, Pseudomonas aeruginosa; details: for MIC: CA-MHB
Description: (§2) Objective: The in-vitro activity of ethylenediaminetetraacetic acid (EDTA) was tested in cation-adjusted Mueller Hinton broth (CA-MHB) and MHB against a panel of Gram-negative clinical isolates from India.
(§3) Method: A total of 80 isolates including ATCC strains and non-duplicate clinically relevant Escherichia coli (n=20), Klebsiella pneumoniae (n=20), Pseudomonas aeruginosa (n=21) and Acinetobacter baumannii (n=19) characterized isolates were selected prior to susceptibility testing. The clinical isolates were collected from hospitalized patients from tertiary care medical centers in India. Isolates were tested for susceptibility to different test concentrations of EDTA (1.25, 2.5, 5, 10, 20, 40, 80 mM) in CA-MHB media and MHB by broth microdilution.

All isolates (n = 80) = assay: MIC profile of EDTA, all tested isolates; type: cell-based, Gram-negative clinical isolates
Description: as §2, §3

E. coli = assay: MIC profile of EDTA, E. coli; type: cell-based, Escherichia coli; details: for MIC50 / MIC90 / MIC: Escherichia coli, n = 20
Description: as §2, §3

K. pneumoniae [8] = assay: MIC profile of EDTA, K. pneumoniae; type: cell-based, Klebsiella pneumoniae
Description: as §2, §3

Non-fermenters = assay: MIC profile of EDTA, non-fermenters; type: cell-based; details: n = 40; for MIC: CA-MHB
Description: as §2, §3

Enterobacterales = assay: MIC profile of EDTA, Enterobacterales; type: cell-based; details: n = 40
Description: as §2, §3

A. baumannii = assay: MIC profile of EDTA, A. baumannii; type: cell-based, Acinetobacter baumannii
Description: as §2, §3

Structure (SMILES): NCC[C@H](O)C(=O)N[C@@H]1C[C@H](N)[C@@H](O[C@H]2O[C@H](CN)[C@@H](O)[C@H](O)[C@H]2O)[C@H](O)[C@H]1O[C@H]1O[C@H](CO)[C@@H](O)[C@H](N)[C@H]1O [Amikacin]
- MIC50 [1]: > 64 µg/mL
- MIC90 [1]: > 64 µg/mL
- MIC90 ([1]; all grouped isolates (606)): > 64 µg/mL
- MIC90 [2]: >64 µg/mL
- MIC50 ([2]; read-out: MIC50): > 64 µg/mL
- MIC90 ([2]; read-out: MIC90): > 64 µg/mL
- MIC50 (P. aeruginosa [3]): > 64 µg/mL
- MIC90 (P. aeruginosa [3]; read-out: MIC90): > 64 µg/mL
- MIC50 ([4]; read-out: MIC50): > 64 µg/mL
- MIC90 ([4]; read-out: MIC90): > 64 µg/mL
- MIC90 (Acinetobacter baumannii; Acinetobacter baumannii): > 64 µg/mL
- MIC50 (Acinetobacter baumannii; Acinetobacter baumannii, highly resistant strains): > 64 µg/mL
- MIC90 (Acinetobacter baumannii; highly resistant strains): >64 µg/mL
- MIC50 [5]: > 64 µg/mL
- MIC90 [5]: > 64 µg/mL
- MIC90 ([5]; highly resistant strains): >64 µg/mL
- MIC50 (K. pneumoniae [6]; Klebsiella pneumoniae, read-out: MIC50): > 64 µg/mL
- MIC90 (K. pneumoniae [6]; Klebsiella pneumoniae, read-out: MIC90): > 64 µg/mL
- MIC90 (K. pneumoniae [6]): >64 µg/mL
- MIC50 (Escherichia coli; read-out: MIC50): 8 µg/mL
- MIC90 (Escherichia coli; read-out: MIC90): > 64 µg/mL

Structure (SMILES): O=C(O)CN(CCN(CC(=O)O)CC(=O)O)CC(=O)O [EDTA, N,N′-(Ethane-1,2-diyl)bis[N-(carboxymethyl)glycine]]
- MIC50 (P. aeruginosa [7]; MHB, n = 21): 10 mM (≈ 2920 µg/mL)
- MIC90 (P. aeruginosa [7]; MHB, n = 21): 20 mM (≈ 5840 µg/mL)
- MIC MAX (P. aeruginosa [7]; MHB, n = 21): 20 mM (≈ 5840 µg/mL)
- MIC MIN (P. aeruginosa [7]; MHB, n = 21): ≤1.25 mM
- MIC50 (P. aeruginosa [7]; Pseudomonas aeruginosa): 10 mM (≈ 2920 µg/mL)
- MIC90 (P. aeruginosa [7]; Pseudomonas aeruginosa): 20 mM (≈ 5840 µg/mL)
- MIC (P. aeruginosa [7]; Pseudomonas aeruginosa, n = 21, read-out: MIC MAX): 20 mM (≈ 5840 µg/mL)
- MIC (P. aeruginosa [7]; Pseudomonas aeruginosa, n = 21, read-out: MIC MIN): ≤ 1.25 mM
- MIC50 (All isolates (n = 80); CA-MHB): 10 mM (≈ 2920 µg/mL)
- MIC90 (All isolates (n = 80); CA-MHB): > 80 mM and >80 mM
- MIC (All isolates (n = 80); CA-MHB, read-out: MIC MAX): > 80 mM
- MIC (All isolates (n = 80); CA-MHB, read-out: MIC MIN): ≤ 1.25 mM
- MIC50 (All isolates (n = 80); MHB): 2.5 mM (≈ 731 µg/mL)
- MIC90 (All isolates (n = 80); MHB): 80 mM (≈ 23400 µg/mL)
- MIC MAX (All isolates (n = 80); MHB): >80 mM
- MIC MIN (All isolates (n = 80); MHB): ≤1.25 mM
- MIC50 (E. coli; CA-MHB): 10 mM (≈ 2920 µg/mL)
- MIC90 (E. coli; CA-MHB): 80 mM (≈ 23400 µg/mL)
- MIC (E. coli; CA-MHB, read-out: MIC MAX): > 80 mM
- MIC (E. coli; CA-MHB, read-out: MIC MIN): 2.5 mM (≈ 731 µg/mL)
- MIC50 (E. coli; MHB): 2.5 mM (≈ 731 µg/mL)
- MIC90 (E. coli; MHB): 20 mM (≈ 5840 µg/mL)
- MIC (E. coli; MHB, read-out: MIC MAX): 80 mM (≈ 23400 µg/mL)
- MIC (E. coli; MHB, read-out: MIC MIN): ≤ 1.25 mM
- MIC50 and MIC90 in MHB, fold lower to CA-MHB (E. coli; MHB vs CA-MHB): 4 fold
- MIC90 (K. pneumoniae [8]; CA-MHB, n = 20): >80 mM
- MIC50 (K. pneumoniae [8]; Klebsiella pneumoniae): 80 mM (≈ 23400 µg/mL)
- MIC90 (K. pneumoniae [8]; Klebsiella pneumoniae, CA-MHB, n = 20): > 80 mM
- MIC (K. pneumoniae [8]; Klebsiella pneumoniae, CA-MHB, n = 20, read-out: MIC MAX): > 80 mM
- MIC (K. pneumoniae [8]; Klebsiella pneumoniae, CA-MHB, n = 20, read-out: MIC MIN): 20 mM (≈ 5840 µg/mL)
- MIC90 (K. pneumoniae [8]; Klebsiella pneumoniae, MHB, n = 20): 80 mM (≈ 23400 µg/mL)
- MIC (K. pneumoniae [8]; Klebsiella pneumoniae, MHB, n = 20, read-out: MIC MAX): > 80 mM
- MIC (K. pneumoniae [8]; Klebsiella pneumoniae, MHB, n = 20, read-out: MIC MIN): 5 mM (≈ 1460 µg/mL)
- MIC in MHB compared to CA-MHB (K. pneumoniae [8]; MHB vs CA-MHB): almost similar to CA-MHB
- MIC50 (K. pneumoniae [8]; MHB, n = 20): 80 mM (≈ 23400 µg/mL)
- MIC (Non-fermenters; read-out: MIC MAX): 20 mM (≈ 5840 µg/mL)
- MIC (Non-fermenters; read-out: MIC MIN): ≤ 1.25 mM
- MIC MAX (Non-fermenters; MHB): 20 mM (≈ 5840 µg/mL)
- MIC MIN (Non-fermenters; MHB): ≤1.25 mM
- MIC50 (Enterobacterales; CA-MHB): 40 mM (≈ 11700 µg/mL)
- MIC90 (Enterobacterales; CA-MHB): > 80 mM and >80 mM
- MIC (Enterobacterales; CA-MHB, read-out: MIC MAX): > 80 mM
- MIC (Enterobacterales; CA-MHB, read-out: MIC MIN): 2.5 mM (≈ 731 µg/mL)
- MIC50 (Enterobacterales; MHB): 10 mM (≈ 2920 µg/mL)
- MIC90 (Enterobacterales; MHB): 80 mM (≈ 23400 µg/mL)
- MIC (Enterobacterales; MHB, read-out: MIC MAX): > 80 mM
- MIC (Enterobacterales; MHB, read-out: MIC MIN): ≤ 1.25 mM
- MIC (A. baumannii; Acinetobacter baumannii, read-out: MICs): ≤ 1.25 mM
- MIC50 (A. baumannii; Acinetobacter baumannii, CA-MHB, n = 19, read-out: MIC50): ≤ 1.25 mM
- MIC90 (A. baumannii; Acinetobacter baumannii, CA-MHB, n = 19, read-out: MIC90): ≤ 1.25 mM
- MIC (A. baumannii; Acinetobacter baumannii, CA-MHB, n = 19, read-out: MIC MAX): ≤ 1.25 mM
- MIC (A. baumannii; Acinetobacter baumannii, CA-MHB, n = 19, read-out: MIC MIN): ≤ 1.25 mM
- MIC50 (A. baumannii; MHB, n = 19): ≤1.25 mM
- MIC90 (A. baumannii; MHB, n = 19): ≤1.25 mM
- MIC MAX (A. baumannii; MHB, n = 19): ≤1.25 mM
- MIC MIN (A. baumannii; MHB, n = 19): ≤1.25 mM
